This is an account of results in patent US20240317714A1, “3-[(1H-PYRAZOL-R-YL)OXY]PYRAZIN-2-AMINE COMPOUNDS AS HPK1 INHIBITOR AND USE THEREOF” (BeiGene, Ltd., priority 2020, published 2024).

Test [1] deals with HPK1 kinase (aal-346. Life Technologies) (Homo sapiens (Human), UniProt Q92918). Briefly: HPK Kinase Activity Assay at 1 mM ATP (TR-FRET). The format is biochemical. To be noted: HPK1 kinase 40 nM, 0.5 μM STK1 substrate, read-out: Enzymatic activity IC50. (Time-resolved FRET reads energy transfer from a long-lived donor to a nearby acceptor.)
Test [2] relates to pSLP76(S376) level in Jurkat cell line. Briefly: Cellular pSLP76(S376) HTRF Assay. It is filed as cell-based. To be noted: Homo sapiens, Jurkat, Jurkat cells, 2 h compound treatment, stimulated with 0.05 μg/mL anti-human CD3 (OKT3) for 30 min.

Chain of HPK1 kinase (aal-346. Life Technologies) (Q92918 1-346): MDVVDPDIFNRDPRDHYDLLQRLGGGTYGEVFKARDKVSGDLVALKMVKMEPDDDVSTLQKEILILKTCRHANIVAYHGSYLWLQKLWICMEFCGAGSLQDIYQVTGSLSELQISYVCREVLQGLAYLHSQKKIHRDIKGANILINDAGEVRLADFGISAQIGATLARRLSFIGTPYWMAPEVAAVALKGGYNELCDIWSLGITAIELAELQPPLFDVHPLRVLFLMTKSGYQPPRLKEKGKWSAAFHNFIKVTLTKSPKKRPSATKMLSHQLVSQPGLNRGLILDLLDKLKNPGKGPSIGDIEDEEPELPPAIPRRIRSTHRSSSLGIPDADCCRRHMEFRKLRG

For orientation: IC50 means the midpoint of a concentration-inhibition curve. Regarding `Cc1cc(-c2cnc(N)c(Oc3cnn(C4CCN(C)CC4)c3)n2)cc(C)c1CNS(C)(=O)=O` [Example A19, N-(4-(5-amino-6-((1-(1-methylpiperidin-4-yl)-1H-pyrazol-4-yl)oxy)pyrazin-2-yl)-2,6-dimethylbenzyl)methanesulfonamide], the half-inhibitory concentration (IC50) in test [1] worked out at 44 nM; in test [2] it was 46 nM.

Take `Cc1cc(-c2cnc(N)c(Oc3cnn(C4CCN(C)CC4)c3)n2)cc(S(N)(=O)=O)c1` [Example A6, 3-(5-amino-6-((1-(1-methylpiperidin-4-yl)-1H-pyrazol-4-yl)oxy)pyrazin-2-yl)-5-methylbenzenesulfonamide]: the 50% inhibitory concentration (IC50) in test [1] was 44 nM; in test [2] it was 35 nM.

For the molecule `CNS(=O)(=O)c1cc(-c2cnc(N)c(Oc3cnn(C4CCN(C)CC4)c3)n2)cc(C(C)(C)C)c1` [Example A30, 3-(5-amino-6-((1-(1-methylpiperidin-4-yl)-1H-pyrazol-4-yl)oxy)pyrazin-2-yl)-5-(tert-butyl)-N-methylbenzenesulfonamide], the IC50 is 111 nM in test [1] and 330 nM in test [2].

For `CNC(=O)NCc1c(C)cc(-c2cnc(N)c(Oc3cnn(C4CCN(C)CC4)c3)n2)cc1C` [Example A26, 1-(4-(5-amino-6-((1-(1-methylpiperidin-4-yl)-1H-pyrazol-4-yl)oxy)pyrazin-2-yl)-2,6-dimethylbenzyl)-3-methylurea], the IC50 was determined as 30 nM in test [1] and 82 nM in test [2].

On to `CNC(=O)NCc1ccc(-c2cnc(N)c(Oc3cnn(C4CCN(C)CC4)c3)n2)cc1C` [Example A47, 1-(4-(5-amino-6-((1-(1-methylpiperidin-4-yl)-1H-pyrazol-4-yl)oxy)pyrazin-2-yl)-2-methylbenzyl)-3-methylurea], for which the IC50 in test [1] worked out at 68 nM; in test [2], 183 nM.

For `CC1OCCC1(O)c1cc(-c2cnc(N)c(Oc3cnn(C4CCN(C)CC4)c3)n2)cc(N2CCOC[C@H]2C)c1` (single isomer, unassigned) [Example A95A], the figures for the half-maximal inhibitory concentration (IC50) in test [1] and in test [2] were 44 nM and 124 nM, respectively.

`Cc1cc(-c2cnc(N)c(Oc3cnn(C4CCN(C)CC4)c3)n2)cc(C)c1CNCC(F)(F)F` [Example A48, 5-(3,5-dimethyl-4-(((2,2,2-trifluoroethyl)amino)methyl)phenyl)-3-((1-(1-methylpiperidin-4-yl)-1H-pyrazol-4-yl)oxy)pyrazin-2-amine]: the IC50 came to 50 nM in test [1] and 183 nM in test [2].

Take `CNS(=O)(=O)c1cc(C)cc(-c2cnc(N)c(Oc3cnn([C@@H]4C[C@H]5CC[C@@H](C4)N5C)c3)n2)c1` [Example A14, 3-(5-amino-6-((1-((1R,3s,5S)-8-methyl-8-azabicyclo[3.2.1]octan-3-yl)-1H-pyrazol-4-yl)oxy)pyrazin-2-yl)-N,5-dimethylbenzenesulfonamide]: the IC50 in test [1] came to 45 nM; in test [2], 59 nM.

For the molecule `CNS(=O)(=O)c1cc(-c2cnc(N)c(Oc3cnn(C4CCN(C)CC4)c3)n2)cc(F)c1C` [Example A18, 5-(5-amino-6-((1-(1-methylpiperidin-4-yl)-1H-pyrazol-4-yl)oxy)pyrazin-2-yl)-3-fluoro-N,2-dimethylbenzenesulfonamide], the half-inhibitory concentration (IC50) is 100 nM in test [1] and 47 nM in test [2].

For the molecule `Cc1cc(-c2cnc(N)c(Oc3cnn(C4CCN(C)CC4)c3)n2)cc(C)c1CNC(=O)NC(C)(C)C` [Example A53, 1-(4-(5-amino-6-((1-(1-methylpiperidin-4-yl)-1H-pyrazol-4-yl)oxy)pyrazin-2-yl)-2,6-dimethylbenzyl)-3-(tert-butyl)urea], the IC50 in test [1] turned out to be 16 nM; in test [2] it was 63 nM.

In the case of `CNS(=O)(=O)c1cc(C)cc(-c2cnc(N)c(Oc3cnn(C4CCN(C5CC5)CC4)c3)n2)c1` [Example A24, 3-(5-amino-6-((1-(1-cyclopropylpiperidin-4-yl)-1H-pyrazol-4-yl)oxy)pyrazin-2-yl)-N,5-dimethylbenzenesulfonamide], the 50% inhibitory concentration (IC50) in test [1] came to 104 nM; in test [2], 175 nM.

In the case of `CNS(=O)(=O)c1cc(C)cc(-c2cnc(N)c(Oc3cnn(C4CCNCC4)c3)n2)c1` [Example A13, 3-(5-amino-6-((1-(piperidin-4-yl)-1H-pyrazol-4-yl)oxy)pyrazin-2-yl)-N,5-dimethylbenzenesulfonamide], the IC50 in test [1] stood at 139 nM; in test [2], 120 nM.

As to `Cc1cc(-c2cnc(N)c(Oc3cnn(C4CCN(C)CC4)c3)n2)cc(C)c1C1(O)COC1` [Example A63, 3-(4-(5-amino-6-((1-(1-methylpiperidin-4-yl)-1H-pyrazol-4-yl)oxy)pyrazin-2-yl)-2,6-dimethylphenyl)oxetan-3-ol], the IC50 in test [1] came to 39 nM; in test [2] it was 102 nM.

On to `Cc1cc(-c2cnc(N)c(Oc3cnn(C4CCN(C)CC4)c3)n2)cc([Si](C)(C)O)c1` [Example A50, (3-(5-amino-6-((1-(1-methylpiperidin-4-yl)-1H-pyrazol-4-yl)oxy)pyrazin-2-yl)-5-methylphenyl)dimethylsilanol], for which the IC50 in test [1] was 18 nM; in test [2], 95 nM.

Take `Cc1cc(-c2cnc(N)c(Oc3cnn(C4CCN(C)CC4)c3)n2)cc(C)c1CNS(=O)(=O)N(C)C` [Example A62, 5-(4-[[(dimethylsulfamoyl)amino]methyl]-3,5-dimethylphenyl)-3-[[1-(1-methylpiperidin-4-yl)pyrazol-4-yl]oxy]pyrazin-2-amine]: the 50% inhibitory concentration (IC50) in test [1] came out at 48 nM; in test [2] it was 79 nM.
